# From patent publication US11642336B2, “5-HT2A agonists for use in treatment of depression” (priority 2019, dated 2023)
# Marks after values point to notes of the source that are not given here.
# Target: human 5-HT2A (Homo sapiens (Human), UniProt P28223)
# Experiment: cell-based
# Assay type: cell-based
# Details: % of the Rmax of 5-HT
row,Compound,5-HT2A Rmax ± S.E.M
1,"COc1cc(C2CNC2)c(OC)cc1Br.Cl [Compound 1, 3-(4-bromo-2,5-dimethoxyphenyl)azetidine hydrochloride]",97 ± 3%
2,"COc1cc(C(F)(F)F)c(OC)cc1C1CNC1.Cl [Compound 2, 3-(2,5-dimethoxy-4-(trifluoromethyl)phenyl)azetidine Hydrochloride]",95 ± 2%
3,"COc1cc([C@H]2CCNC2)c(OC)cc1Br [Compound 3, (R)-3-(4-bromo-2,5-dimethoxyphenyl)pyrrolidine]",57 ± 3%
4,"Br.COc1cc([C@@H]2CCNC2)c(OC)cc1Br [Compound 4, (S)-3-(4-bromo-2,5-dimethoxyphenyl)pyrrolidine Hydrobromide]",39 ± 4%
5,"COc1cc(C(F)(F)F)c(OC)cc1[C@H]1CCNC1 [Compound 5, (R)-3-(2,5-dimethoxy-4-(trifluoromethyl)phenyl)pyrrolidine]",45 ± 1%
6,"COc1cc(C(F)(F)F)c(OC)cc1[C@@H]1CCNC1 [Compound 6, (S)-3-(2,5-dimethoxy-4-(trifluoromethyl)phenyl)pyrrolidine]",35 ± 4%
7,"CCOc1cc([C@H]2CCCNC2)c(OC)cc1C(F)(F)F.Cl [Compound 19, (R)-3-(5-ethoxy-2-methoxy-4-(trifluoromethyl)phenyl)piperidine hydrochloride]",86 ± 6%
8,"CCOc1cc(C(F)(F)F)c(OCC)cc1[C@H]1CCCNC1.Cl [Compound 21, (R)-3-(2,5-diethoxy-4-(trifluoromethyl)phenyl)piperidine hydrochloride]",69 ± 4%

# Same assay, conditions: Ca2+/Fluo-4 assay; bounds are conservative estimates
row,Compound,Selectivity EC50 5-HT2C/EC50 5-HT2A
1,"COc1cc(C2CNC2)c(OC)cc1Br.Cl [Compound 1, 3-(4-bromo-2,5-dimethoxyphenyl)azetidine hydrochloride]",3.6
2,"COc1cc(C(F)(F)F)c(OC)cc1C1CNC1.Cl [Compound 2, 3-(2,5-dimethoxy-4-(trifluoromethyl)phenyl)azetidine Hydrochloride]",5.2
3,"COc1cc([C@H]2CCNC2)c(OC)cc1Br [Compound 3, (R)-3-(4-bromo-2,5-dimethoxyphenyl)pyrrolidine]",4.9
4,"Br.COc1cc([C@@H]2CCNC2)c(OC)cc1Br [Compound 4, (S)-3-(4-bromo-2,5-dimethoxyphenyl)pyrrolidine Hydrobromide]",2.3
5,"COc1cc(C(F)(F)F)c(OC)cc1[C@H]1CCNC1 [Compound 5, (R)-3-(2,5-dimethoxy-4-(trifluoromethyl)phenyl)pyrrolidine]",3.7
6,"COc1cc(C(F)(F)F)c(OC)cc1[C@@H]1CCNC1 [Compound 6, (S)-3-(2,5-dimethoxy-4-(trifluoromethyl)phenyl)pyrrolidine]",3.5
7,"CCOc1cc(C(F)(F)F)c(OCC)cc1[C@H]1CCCNC1.Cl [Compound 21, (R)-3-(2,5-diethoxy-4-(trifluoromethyl)phenyl)piperidine hydrochloride]",>10^e

# Same assay, conditions: agonist potency, n = 3-4; read-out: 5-HT2A EC50
row,Compound,EC50
1,"COc1cc([C@H]2CCNC2)c(OC)cc1Br [Compound 3, (R)-3-(4-bromo-2,5-dimethoxyphenyl)pyrrolidine]",5.3 nM
2,"Br.COc1cc([C@@H]2CCNC2)c(OC)cc1Br [Compound 4, (S)-3-(4-bromo-2,5-dimethoxyphenyl)pyrrolidine Hydrobromide]",7.7 nM
3,"COc1cc(C(F)(F)F)c(OC)cc1[C@H]1CCNC1 [Compound 5, (R)-3-(2,5-dimethoxy-4-(trifluoromethyl)phenyl)pyrrolidine]",11 nM
4,"COc1cc(C(F)(F)F)c(OC)cc1[C@@H]1CCNC1 [Compound 6, (S)-3-(2,5-dimethoxy-4-(trifluoromethyl)phenyl)pyrrolidine]",5.4 nM
5,"CCOc1cc([C@H]2CCCNC2)c(OC)cc1C(F)(F)F.Cl [Compound 19, (R)-3-(5-ethoxy-2-methoxy-4-(trifluoromethyl)phenyl)piperidine hydrochloride]",320 nM
6,"CCOc1cc(C(F)(F)F)c(OCC)cc1[C@H]1CCCNC1.Cl [Compound 21, (R)-3-(2,5-diethoxy-4-(trifluoromethyl)phenyl)piperidine hydrochloride]",3000 nM

# Same assay, conditions: agonist potency, n = 3-4; read-out: 5-HT2A [pEC50 ± S.E.M.] (converted)
row,Compound,EC50
1,"COc1cc(C2CNC2)c(OC)cc1Br.Cl [Compound 1, 3-(4-bromo-2,5-dimethoxyphenyl)azetidine hydrochloride]",1.58 nM
2,"COc1cc(C(F)(F)F)c(OC)cc1C1CNC1.Cl [Compound 2, 3-(2,5-dimethoxy-4-(trifluoromethyl)phenyl)azetidine Hydrochloride]",1 nM
3,"COc1cc([C@H]2CCNC2)c(OC)cc1Br [Compound 3, (R)-3-(4-bromo-2,5-dimethoxyphenyl)pyrrolidine]",7.76 nM
4,"COc1cc(C(F)(F)F)c(OC)cc1[C@H]1CCNC1 [Compound 5, (R)-3-(2,5-dimethoxy-4-(trifluoromethyl)phenyl)pyrrolidine]",10.5 nM
5,"CCOc1cc([C@H]2CCCNC2)c(OC)cc1C(F)(F)F.Cl [Compound 19, (R)-3-(5-ethoxy-2-methoxy-4-(trifluoromethyl)phenyl)piperidine hydrochloride]",316 nM

# Target: 5-HT2C (Homo sapiens (Human), UniProt P28335)
# Experiment: Ca2+/Fluo-4 assay, stable h5-HT2C-HEK293 cell line;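 note: Agonist-induced intracellular Ca2+ rise read by Fluo-4 fluorescence in HEK293 cells stably expressing the human 5-HT2C receptor, each compound run in duplicate on three or more occasions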
# Assay type: cell-based
# Details: % of the Rmax of 5-HT
# Procedure: The functional properties of the compounds were characterised at stable HEK293 cell lines stably expressing the human 5-HT2A receptor or human 5-HT2C receptor in the Ca^2+/Fluo-4 assay essentially as previously described.^10 Briefly, the cells were split into poly-D-lysine-coated black 96-well plates with clear bottoms (6×10^4 cells/well). The following day the culture medium was aspirated and the cells were incubated in 50 μl assay buffer [Hanks Buffered Saline Solution containing 20 mM HEPES, 1 mM CaCl2, 1 mM MgCl2, 2.5 mM probenecid, pH 7.4] supplemented with 6 mM Fluo-4/AM at 37° C. for 1 hour. Next, the buffer was aspirated, the cells were washed once with 100 μl assay buffer, and then 100 μl assay buffer was added to the cells (in the antagonist experiments the compound was added at this point). […] The compounds were characterized in duplicate at least three times at each cell line.
# Chain of 5-HT2C (P28335 whole entry, looked up): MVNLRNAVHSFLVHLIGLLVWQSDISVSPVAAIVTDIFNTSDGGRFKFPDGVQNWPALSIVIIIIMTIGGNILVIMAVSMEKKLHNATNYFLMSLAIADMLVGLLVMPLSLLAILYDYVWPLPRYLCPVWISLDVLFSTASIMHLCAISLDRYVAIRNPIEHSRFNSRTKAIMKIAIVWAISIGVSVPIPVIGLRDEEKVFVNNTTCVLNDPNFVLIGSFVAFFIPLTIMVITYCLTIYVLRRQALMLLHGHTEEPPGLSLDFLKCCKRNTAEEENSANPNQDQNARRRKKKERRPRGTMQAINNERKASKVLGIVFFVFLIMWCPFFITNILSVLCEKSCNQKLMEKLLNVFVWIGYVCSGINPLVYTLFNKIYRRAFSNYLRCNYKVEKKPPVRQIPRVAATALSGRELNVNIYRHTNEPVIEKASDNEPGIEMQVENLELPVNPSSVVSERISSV
row,Compound,5-HT2C Rmax ± S.E.M
1,"COc1cc(C2CNC2)c(OC)cc1Br.Cl [Compound 1, 3-(4-bromo-2,5-dimethoxyphenyl)azetidine hydrochloride]",90 ± 3%
2,"COc1cc(C(F)(F)F)c(OC)cc1C1CNC1.Cl [Compound 2, 3-(2,5-dimethoxy-4-(trifluoromethyl)phenyl)azetidine Hydrochloride]",87 ± 4%
3,"COc1cc([C@H]2CCNC2)c(OC)cc1Br [Compound 3, (R)-3-(4-bromo-2,5-dimethoxyphenyl)pyrrolidine]",73 ± 3%
4,"Br.COc1cc([C@@H]2CCNC2)c(OC)cc1Br [Compound 4, (S)-3-(4-bromo-2,5-dimethoxyphenyl)pyrrolidine Hydrobromide]",16 ± 3%
5,"COc1cc(C(F)(F)F)c(OC)cc1[C@H]1CCNC1 [Compound 5, (R)-3-(2,5-dimethoxy-4-(trifluoromethyl)phenyl)pyrrolidine]",65 ± 4%
6,"COc1cc(C(F)(F)F)c(OC)cc1[C@@H]1CCNC1 [Compound 6, (S)-3-(2,5-dimethoxy-4-(trifluoromethyl)phenyl)pyrrolidine]",28 ± 2%

# Same assay, conditions: agonist potency, n = 3-4; read-out: 5-HT2C EC50
row,Compound,EC50
1,"COc1cc(C2CNC2)c(OC)cc1Br.Cl [Compound 1, 3-(4-bromo-2,5-dimethoxyphenyl)azetidine hydrochloride]",5.8 nM
2,"COc1cc(C(F)(F)F)c(OC)cc1C1CNC1.Cl [Compound 2, 3-(2,5-dimethoxy-4-(trifluoromethyl)phenyl)azetidine Hydrochloride]",5.2 nM

# Same assay, conditions: agonist potency, n = 3-4; read-out: 5-HT2C [pEC50 ± S.E.M.] (converted)
row,Compound,EC50
1,"COc1cc([C@H]2CCNC2)c(OC)cc1Br [Compound 3, (R)-3-(4-bromo-2,5-dimethoxyphenyl)pyrrolidine]",25.7 nM
2,"Br.COc1cc([C@@H]2CCNC2)c(OC)cc1Br [Compound 4, (S)-3-(4-bromo-2,5-dimethoxyphenyl)pyrrolidine Hydrobromide]",17.8 nM
3,"COc1cc(C(F)(F)F)c(OC)cc1[C@H]1CCNC1 [Compound 5, (R)-3-(2,5-dimethoxy-4-(trifluoromethyl)phenyl)pyrrolidine]",40.7 nM
4,"COc1cc(C(F)(F)F)c(OC)cc1[C@@H]1CCNC1 [Compound 6, (S)-3-(2,5-dimethoxy-4-(trifluoromethyl)phenyl)pyrrolidine]",19.1 nM
